≈ marks a conversion by molar mass, not a printed value.
Legend:
HSV-1 strain E-377 = assay: CPE inhibition assay, HSV-1 E377 in human foreskin fibroblast cells; type: cell-based, herpes simplex virus type 1; conditions: for EC50 HSV-1 E377: CPE inhibition in HFF cells; for Qualitative CPE at 2.0 ml dose HSV-1 E377: key: +++ = Complete cytopathic effect; ++ = Moderate cytopathic effect; + = Minimum cytopathic effect; − = No cytopathic effect
[1] = system: Primary human foreskin fibroblast cells (HFF); assay: Cell proliferation assay (cytotoxicity) in HFF cells; type: cell-based; conditions: for CC50: Human foreskin fibroblast cells, reduces growth of uninfected cells by 50%
HSV-2 strain G = assay: CPE inhibition, HSV-2 strain G in HEp-2 cells; for Cytopathic Effect (CPE) Inhibition HSV-2 Strain G: key: +++ = Complete cytopathic effect; ++ = Moderate cytopathic effect; + = Minimum cytopathic effect; − = No cytopathic effect; type: cell-based, herpes simplex virus type 2; conditions: for Cytopathic Effect (CPE) Inhibition HSV-2 Strain G: conc. per compound (ng/ml)
Daudi cells = assay: CC50 in Daudi cells (Table 3); type: cell-based; conditions: Daudi cells, Epstein-Barr Virus section of Table 3
Procedure: Raji is a Burkitt's lymphoma cell line containing 60 EBV genome/cell, and was the primary cell used for screening antiviral activity against EBV early antigen (EA) expression. Daudi is a low level producer that contains 152 EBV genome copies/cell. It spontaneously expresses EBV EA in 0.25-0.5% of the cells. It was used in follow-up studies to confirm activity. […] All cell lines were maintained in RPMI-1640 medium supplemented with 10% FCS, L-glutamine and 100 μg/ml gentamicin. The cultures were fed twice weekly and the cell concentration was adjusted to 3×10^5/ml. The cells were kept at 37° C. in humidified atmosphere with 5% CO2.

[2] = system: Primary Rabbit Kidney cells; assay: Cytotoxic effect in primary rabbit kidney cells; type: cell-based; conditions: for CC50: Primary Rabbit Kidney cell line
Procedure: (§1) Human laryngeal epithelial carcinoma cells (HEp-2, ATCC, Rockville, Md.) were used for testing of antiviral compounds by cytopathic effect (CPE) inhibition and plaque reduction assay. […] HEp-2, African green monkey kidney cells (Vero, ATCC), HFF and primary rabbit kidney cells were used to determine the cytotoxic effect of compounds of formula I. These cells were propagated in Dulbeco's modified Eagle's medium (DMEM) (Sigma, USA) supplemented with 10% inactivated fetal calf serum (FCS), 25 mM HEPES, 0.2% sodium bicarbonate and 1% penicillin/-streptomycin at 37° C. in the presence of 5% CO2.
(§2) HFF, Vero and HEp-2 cells were seeded in 24-well tissue culture plates at a concentration of […] in DMEM containing 10% FCS and incubated for 24 hours at 37° C. in the presence of 5% CO2. To the monolayer of these cells 0.5, 1.0, 1.5 and 2.0 ml of solution of antiviral compounds were added in the respective wells in duplicate and the cells were then incubated in a 5% CO2 incubator at 37° C. for 72 hours. The cells were observed daily for any change in morphology. […] At the end of this time, the media-drug solution was removed and the cells washed. One ml of 0.25% trypsin was added to each well and incubated until the cells start to come off of the plate. The cells-media mixture was then pipetted up and down several times to resuspend the cells and 0.2 ml of the cell suspension was added to 9.8 ml of trypan blue and cells were counted using hemocytometer. Each sample was counted three times with three replicate wells per sample.

Vero cells = assay: Cytotoxic effect in Vero cell line; type: cell-based, African green monkey; conditions: Vero cell line
Procedure: as §1, §2

HSV-1 (E377) [3] = assay: Cutaneous HSV-1 infection in rats, topical ointment; type: in vivo, rat; conditions: for effect on cutaneous HSV-1 infection (in words): topical ointment (2% betulin, 2% allobetulin, 5% Acyclovir) twice daily for 3 days from 18 hours after infection
HSV-1 (E377) [4] = assay: Cutaneous HSV-1 infection in guinea pigs, topical ointment; type: in vivo, guinea pig; conditions: topical ointment (2% betulin, 2% allobetulin, 5% Acyclovir) twice daily for 3 days
[5] = system: Human laryngeal epithelial carcinoma cells (HEp-2); assay: Cytotoxicity in HEp-2 cells; type: cell-based
Human Cytomegalovirus = assay: CPE inhibition in stationary cells (visual), HCMV in HFF cells; type: cell-based; conditions: test compounds in DMSO
Mouse Cytomegalovirus = assay: CPE inhibition in stationary cells (visual), MCMV in MEF cells; type: cell-based; conditions: test compounds in DMSO
MEF cells = assay: CC50 in MEF cells (Table 3); type: cell-based; conditions: Mouse Cytomegalovirus section of Table 3
Varicella-Zoster Virus = assay: CPE inhibition in stationary cells (visual), VZV in HFF cells; type: cell-based; conditions: test compounds in DMSO
[6] = HFF cells, solution conc. per compound (ng/ml) (Acyclovir 250)

**Q.** “acycloguanosine [Acyclovir, reference compound]” was tested. Which “EC50 HSV-1 E377” value (HSV-1 strain E-377) did it give?
**A.** Its value is 1.6 µg/mL.

**Q.** What about the “Qualitative CPE at 2.0 ml dose HSV-1 E377” value (“Qualitative CPE” for short) (HSV-1 strain E-377; HFF cells, Conc. 12500 ng/ml) of the same compound?
**A.** Its value is “+”.

**Q.** And the “Qualitative CPE” value (HSV-1 strain E-377; [6])?
**A.** Its value is “+++”.

**Q.** What about the CC50 ([1]; listed as Acyclovir ®) of the same compound?
**A.** Its CC50 is greater than 12500 ng/mL.

**Q.** And the CC50 ([1]; listed as Acyclovir®)?
**A.** Its CC50 is > 12,500 ng/ml.

**Q.** What about the “Cytopathic Effect (CPE) Inhibition HSV-2 Strain G” value (HSV-2 strain G) of the same compound?
**A.** Its value is “+++”.

**Q.** And the CC50 (Daudi cells)?
**A.** Its CC50 is greater than 100 µg/mL.

**Q.** And the CC50 [2]?
**A.** The CC50 was greater than 0.25 µg/mL.

**Q.** What about the CC50 (Vero cells) of the same compound?
**A.** Its CC50 is 0.25 µg/mL.

**Q.** And the “effect on cutaneous HSV-1 infection (in words)” value (“effect … (in words)” below) (HSV-1 (E377) [3])?
**A.** The value was “same healing response”.

**Q.** And the “effect … (in words)” value (HSV-1 (E377) [4])?
**A.** Its value is “diminished the development of the clinical infectious process”.

**Q.** How did the “EC50 HSV-1 E377” value (HSV-1 strain E-377) turn out when `C=C(C)[C@@H]1CC[C@]2(CO)CC[C@]3(C)[C@H](CC[C@@H]4[C@@]5(C)CC[C@H](O)C(C)(C)[C@@H]5CC[C@]43C)[C@@H]12` [Betulin, lup-20(29)-ene-3β, 28-diol, reference compound] was run?
**A.** The value was 0.25 µg/mL (≈ 0.565 µM).

**Q.** What about the “anti HSV-1 activity (in words)” value (HSV-1 strain E-377; HFF cells, HSV-1 (E377)) of the same compound?
**A.** The value was “significant anti-HSV-1 activity”.

**Q.** And the “Qualitative CPE” value (HSV-1 strain E-377; [6])?
**A.** Its value is “+++”.

**Q.** And the “cytotoxicity (in words)” value ([1]; HFF cells)?
**A.** Its value is “more toxic”.

**Q.** And the “Qualitative Cytotoxic Effect at 2.0 ml dose” value ([1]; HFF cells, solution conc. per compound (ng/ml) (Acyclovir 250), 2.0 ml dose)?
**A.** The value was “−”.

**Q.** And the CC50 [1]?
**A.** The CC50 was 250 ng/mL (≈ 0.565 µM).

**Q.** And the “Cytopathic Effect (CPE) Inhibition HSV-2 Strain G” value (HSV-2 strain G)?
**A.** The value was “+”.

**Q.** And the “anti HSV-2 activity (in words)” value (HSV-2 strain G; qualitative CPE inhibition assay)?
**A.** Its value is “significant anti HSV-2 activity”.

**Q.** And the “cytotoxicity (in words)” value ([5]; HEp-2 (human epithelial) cells)?
**A.** The value was “less cytotoxicity”.

**Q.** And the “Cell Cytotoxicity” value ([5]; HEp-2 cells, conc. per compound (ng/ml))?
**A.** Its value is “−”.

**Q.** And the EC50 (Human Cytomegalovirus)?
**A.** The EC50 was 0.0029 µg/mL (≈ 0.00655 µM).

**Q.** And the EC50 (Mouse Cytomegalovirus)?
**A.** Its EC50 is greater than 0.02 µg/mL.

**Q.** And the CC50 (MEF cells)?
**A.** The CC50 was 0.08 µg/mL (≈ 0.181 µM).

**Q.** What about the EC50 (Varicella-Zoster Virus) of the same compound?
**A.** The EC50 was greater than 0.004 µg/mL.

**Q.** And the CC50 [2]?
**A.** Its CC50 is greater than 0.25 µg/mL.

**Q.** And the “cytotoxicity (in words)” value ([2]; primary rabbit kidney cells)?
**A.** The value was “No cytotoxicity”.

**Q.** What about the CC50 (Vero cells) of the same compound?
**A.** Its CC50 is 0.125 µg/mL (≈ 0.282 µM).

**Q.** And the “number of typical HSV lesions” value (HSV-1 (E377) [3]; HSV-1, by the 4th to 8th days of infection, 2% ointment twice daily for 3 days)?
**A.** The value was “decreased rapidly”.

**Q.** And the “effect … (in words)” value (HSV-1 (E377) [3])?
**A.** The value was “diminished the signs of the infectious process”.

**Q.** And the “effect … (in words)” value (HSV-1 (E377) [4])?
**A.** The value was “diminished the development of the clinical infectious process”.

— patent US6369101B1, “Therapeutic method to treat herpes virus infection” (Regents of the University of Minnesota, priority 1999, dated 2002)
